Measured values taken from patent US20080194585A1, “Fungicidal Pyrazine Derivatives” (priority 2005, published 2008).
Marks after values point to notes of the source that are not given here.

Experiments:
[1] = system: Plasmopara viticola; assay: Test D: grape downy mildew, spray after inoculation of grape seedlings; type: in vivo
Excerpt: Upon removal, disease ratings were made. […] A dash (-) indicates no test results.

[2] = system: Septoria nodorum; assay: Test H: wheat glum blotch, preventive spray on wheat seedlings
Experimental: (the causal agent of wheat glum blotch) and incubated in a saturated atmosphere at 20° C. for 48 h, and then moved to a growth chamber at 22° C. for 5 days, after which disease ratings were made.

[3] = system: Colletotrichum orbiculare; assay: Test B: cucumber Colletotrichum anthracnose, preventive spray on cucumber seedlings
[4] = system: Puccinia recondita f. sp. tritici; assay: Test K: wheat leaf rust, preventive spray on wheat seedlings
[5] = system: Erysiphe graminis f. sp. tritici; assay: Test L: wheat powdery mildew, preventive spray on wheat seedlings
[6] = system: Pythium aphanidermatum; assay: Test A: bluegrass pythium blight, preventive spray on bluegrass seedlings
[7] = system: Botrytis cinerea; assay: Test E: tomato botrytis, preventive spray on tomato seedlings
[8] = system: fusarium graminearium; assay: Test I: wheat head scab, preventive spray on wheat seedlings
Experimental: (the causal agent of wheat head scab) and incubated in a saturated atmosphere at 20° C. for 72 h, and then moved to a growth chamber at 22° C. for 5 days, after which disease ratings were made.

[9] = system: Rhizoctonia oryzae; assay: Test G: turf brown patch, preventive spray on creeping bent grass seedlings
Experimental: (the causal agent of turf brown patch) and incubated in a saturated atmosphere at 27° C. for 24 h, and then moved to a growth chamber at 27° C. for 5 days, after which disease ratings were made.

[10] = system: Phytophthora infestans; assay: whole plant or invertebrate; type: in vivo
[11] = system: Septoria tritici; assay: Test J: wheat leaf blotch, preventive spray on wheat seedlings; type: in vivo; settings: 40 ppm (marked *); 100 = 100% disease control, 0 = no control
Excerpt: A dash (-) indicates no test results.

[12] = 40 ppm (marked *), 100 = 100% disease control, 0 = no control
[13] = 200 ppm, 100 = 100% disease control, 0 = no control
[14] = 200 ppm, 100 = 100% disease control, 0 = no control relative to controls

Structure (SMILES) | Test D disease control rating [1, 12] | Test H disease control rating [2, 12] | Test J disease control rating [11] | Test B disease control rating [3, 12] | Test K disease control rating [4, 12] | Test L disease control rating [5, 12] | Test E disease control rating [7, 12] | Test G disease control rating [9, 12] | Test F disease control rating [10, 12] | Test D disease control rating [1, 14] [%] | Test H disease control rating [2, 14] [%] | Test B disease control rating [3, 14] [%] | Test K disease control rating [4, 14] [%] | Test L disease control rating [5, 14] [%] | Test A disease control rating [6, 14] [%] | Test E disease control rating [7, 14] [%] | Test I disease control rating [8, 14] [%] | Test G disease control rating [9, 14] [%] | Test F disease control rating [10, 14] [%] | also measured
CC(C)=Nn1c(-c2c(F)cccc2F)c(Cl)nc(-n2cccn2)c1=O [Compound 392, 5-Chloro-6-(2,6-difluorophenyl)-1-[(1-methylethylidene)amino]-3-(1H-pyrazol-1-yl)-2(1H)-pyrazinone] | – | – | – | – | – | – | – | – | – | – | – | – | – | – | – | – | – | – | – | pest or weed control at 200 ppm ([1]; Plasmopara viticola, 168 h, 200 ppm, 100 = 100% disease control, 0 = no control relative to controls, read-out: Test D disease control rating): 0%; pest or weed control at 200 ppm ([2]; Parastagonospora nodorum, in Triticum aestivum, topical, 168 h, read-out: Test H disease control rating, 200 ppm, 100 = 100% disease control, 0 = no control relative to controls): 78%; pest or weed control at 200 ppm ([3]; Colletotrichum orbiculare, in Cucumis sativus, 144 h, read-out: Test B disease control rating, 200 ppm, 100 = 100% disease control, 0 = no control relative to controls): 0%; pest or weed control at 200 ppm ([4]; Puccinia recondita, in Triticum aestivum, 192 h, read-out: Test K disease control rating): 99%; pest or weed control at 200 ppm ([5]; Blumeria graminis, in Triticum aestivum, 168 h, read-out: Test L disease control rating, 200 ppm, 100 = 100% disease control, 0 = no control relative to controls): 59%; pest or weed control at 200 ppm ([6]; Pythium aphanidermatum, 120 h, read-out: Test A disease control rating): 0%; pest or weed control at 200 ppm ([7]; Botrytis cinerea, in Solanum lycopersicum, topical, 72 h, read-out: Test E disease control rating): 99%; pest or weed control at 200 ppm ([8]; Fusarium, in Triticum aestivum, topical, 192 h, read-out: Test I disease control rating, 200 ppm, 100 = 100% disease control, 0 = no control relative to controls): 0%; pest or weed control at 200 ppm ([9]; Waitea circinata, in Agrostis stolonifera, topical, 144 h, read-out: Test G disease control rating, 200 ppm, 100 = 100% disease control, 0 = no control relative to controls): 69%; pest or weed control at 200 ppm ([10]; Phytophthora infestans, in Solanum lycopersicum, topical, 144 h, read-out: Test F disease control rating): 0%
CC(C)Cn1c(-c2c(F)cccc2F)c(Cl)nc(N2CCC=N2)c1=O [compound 4] | – | – | – | – | – | – | – | – | – | – | – | – | – | – | – | – | – | – | – | Test D disease control rating ([1]; 200 ppm): 12%; Test H disease control rating ([2]; 200 ppm): 99%; Test B disease control rating ([3]; 200 ppm): 0%; Test K disease control rating ([4]; 200 ppm): 98%; Test L disease control rating ([5]; 200 ppm): 96%; Test A disease control rating ([6]; 200 ppm): 0%; Test E disease control rating ([7]; 200 ppm): 96%; Test I disease control rating ([8]; 200 ppm): 0%; Test G disease control rating ([9]; 200 ppm): 99%; Test F disease control rating ([10]; 200 ppm): 0%
Cc1ccn(-c2nc(Cl)c(-c3c(F)cc(F)cc3F)n(-c3cccc(F)c3F)c2=O)n1 [compound 370] | 0* % | 100* % | 100* % | 100* % | 100* % | 96* % | 99* % | 92* % | 0* % | – | – | – | – | – | – | – | – | – | – | Test A disease control rating [6, 12]: 0* %
O=c1c(-n2cccn2)nc(Cl)c(-c2c(F)cc(F)cc2F)n1-c1ccc(Cl)cc1 [compound 371] | 0* % | 100* % | 100* % | 99* % | 100* % | 98* % | 99* % | 99* % | 0* % | – | – | – | – | – | – | – | – | – | – | Test A disease control rating [6, 12]: 0* %
Cc1ccn(-c2nc(Cl)c(-c3c(F)cc(F)cc3F)n(-c3ccc(Cl)cc3)c2=O)n1 [compound 372] | 0* % | 100* % | 100* % | 100* % | 100* % | – | 99* % | – | 0* % | – | – | – | – | – | – | – | – | – | – | Test L disease control rating [5, 13]: 98%; Test A disease control rating [6, 12]: 0* %; Test G disease control rating [9, 13]: 82%
CCC(C)c1c(Cl)nc(-n2ccc(C)n2)c(=O)n1CC(C)C (centres unmarked) [compound 390] | – | – | – | – | – | – | – | – | – | 8 | 0 | 0 | 100 | 100 | 0 | 98 | 0 | 99 | 0 | –
CC(C)Cn1c(-c2c(F)cccc2F)c(I)nc(-c2ccccn2)c1=O [compound 401] | 0* % | – | 32* % | – | – | – | – | – | – | – | 95 | 0 | – | 98 | – | 96 | 0 | 85 | 0 | –
O=c1c(-n2cccn2)nc(Cl)c(-c2c(F)cc(F)cc2F)n1-c1ccc(Cl)c(Cl)c1 [compound 402] | 0* % | 100* % | 99* % | 98* % | – | 57* % | 99* % | 0* % | 0* % | – | – | – | – | – | – | – | – | – | – | Test I disease control rating [8, 12]: 0* %
C#CCNC(=O)c1nc(Cl)c(-c2c(F)cc(F)cc2F)n(CC(C)CC)c1=O (centres unmarked) [compound 416] | – | – | – | – | – | – | – | – | – | – | 100 | 99 | 100 | 99 | – | 99 | 0 | – | – | –
O=c1c(-n2cccn2)nc(Cl)c(-c2c(F)cc(F)cc2F)n1C1CCCCC1 [compound 418] | – | – | – | – | – | – | – | – | – | 47 | 100 | 99 | 99 | 100 | 0 | 99 | 0 | 99 | 0 | –
NC(=O)c1nc(Cl)c(-c2c(F)ccc(F)c2F)n(-c2ccccc2)c1=O [compound 419] | – | 94* % | – | – | 100* % | 0* % | 97* % | 0* % | – | 32 | – | – | – | – | 100 | – | 73 | – | 95 | –
NC(=O)c1nc(Cl)c(-c2c(F)cc(F)cc2F)n(-c2ccccc2)c1=O [compound 420] | – | 96* % | – | – | 100* % | 41* % | 94* % | 0* % | – | 31 | – | – | – | – | 98 | – | 60 | – | 100 | –
CCC(C)Cn1c(-c2ccc(OC)cc2F)c(Cl)nc(-n2cccn2)c1=O (centres unmarked) [compound 421] | – | – | – | – | – | – | – | – | – | 3 | 100 | 99 | 100 | 94 | 0 | 99 | 0 | 34 | 0 | –
